In patent US8710076B2, “2,5-disubstituted piperidine orexin receptor antagonists” (Merck Sharp & Dohme Corp., priority 2008, dated 2014):

Biological target: orexin-2 receptor (OX2R) (Homo sapiens (Human), UniProt O43614)
Test: radioligand binding assay, membranes from CHO cells expressing OX2
Details: membranes prepared from CHO cells expressing OX2
Protocol: The utility of the compounds in accordance with the present invention as orexin receptor OX1R and/or OX2R antagonists may be readily determined without undue experimentation by methodology well known in the art, including the “FLIPR Ca^2+Flux Assay” (Okumura et al., Biochem. Biophys. Res. Comm. 280:976-981, 2001). In a typical experiment the OX1 and OX2 receptor antagonistic activity of the compounds of the present invention was determined in accordance with the following experimental method. For intracellular calcium measurements, Chinese hamster ovary (CHO) cells expressing the rat OX1 receptor or the human OX2 receptor, are grown in Iscove's modified DMEM containing 2 mM L-glutamine, […], 1% hypoxanthine-thymidine supplement, 100 U/ml penicillin, 100 ug/ml streptomycin and 10% heat-inactivated fetal calf serum (FCS). The cells are seeded at 20,000 cells/well into Becton-Dickinson black 384-well clear bottom sterile plates coated with poly-D-lysine. All reagents were from GIBCO-Invitrogen Corp. The seeded plates are incubated overnight at 37° C. and 5% CO2. Ala-6,12 human orexin-A as the agonist is prepared as a 1 mM stock solution in 1% bovine serum albumin (BSA) and diluted in assay buffer (HBSS containing 20 mM HEPES, 0.1% BSA and 2.5 mM probenecid, pH7.4) for use in the assay at a final concentration of 70 pM. Test compounds are prepared as 10 mM stock solution in DMSO, then diluted in 384-well plates, first in DMSO, then assay buffer. On the day of the assay, cells are washed 3 times with 100 ul assay buffer and then incubated for […] (37° C., 5% CO2) in 60 ul assay buffer containing 1 uM Fluo-4AM ester, 0.02% pluronic acid, and 1% BSA. The dye loading solution is then aspirated and cells are washed 3 times with 100 ul assay buffer. 30 ul of that same buffer is left in each well. Within the Fluorescent Imaging Plate Reader (FLIPR, Molecular Devices), test compounds are added to the plate in a volume of 25 ul, incubated for 5 min and finally 25 ul of agonist is added. Fluorescence is measured for each well at 1 second intervals for 5 minutes and the height of each fluorescence peak is compared to the height of the fluorescence peak induced by 70 pM Ala-6,12 orexin-A with buffer in place of antagonist. […] Alternatively, compound potency can be assessed by a radioligand binding assay (described in Bergman et. al. Bioorg. Med. Chem. Lett. 2008, 18, 1425-1430) in which the inhibition constant (Ki) is determined in membranes prepared from CHO cells expressing either the orexin-1 (OX1) or orexin-2 (OX2) receptor. The intrinsic orexin receptor antagonist activity of a compound which may be used in the present invention may be determined by these assays.

orexin-2 receptor (OX2R), sequence (O43614 whole entry): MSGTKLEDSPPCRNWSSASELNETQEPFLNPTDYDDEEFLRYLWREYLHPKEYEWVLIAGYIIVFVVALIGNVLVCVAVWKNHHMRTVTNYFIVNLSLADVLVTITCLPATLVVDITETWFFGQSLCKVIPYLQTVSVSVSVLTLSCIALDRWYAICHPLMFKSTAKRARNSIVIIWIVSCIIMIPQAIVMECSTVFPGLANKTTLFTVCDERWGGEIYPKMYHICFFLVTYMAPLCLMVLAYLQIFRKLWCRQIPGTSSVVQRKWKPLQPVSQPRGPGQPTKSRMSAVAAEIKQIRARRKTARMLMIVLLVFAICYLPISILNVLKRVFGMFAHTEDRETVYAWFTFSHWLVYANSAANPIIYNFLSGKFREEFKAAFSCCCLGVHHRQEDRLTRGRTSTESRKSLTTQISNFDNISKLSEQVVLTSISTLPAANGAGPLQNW

With `C[C@@H]1CC[C@@H](Oc2cccc3ocnc23)CN1C(=O)c1ccccc1-n1nccn1` (mixture of isomers) [1-1, (2R,5R)- and (2S,5S)-4-({6-methyl-1-[2-(2H-1,2,3-triazol-2-yl)benzoyl]piperidin-3-yl}oxy)-l,3-benzoxazole] as the compound, how does the Ki read?
Its Ki is 18.3 nM.

How did the Ki turn out when `Cc1ccc(-n2nccn2)c(C(=O)N2C[C@H](Nc3nccc4ccccc34)CC[C@H]2C)c1` [H-4, N-{(2R,5R)-6-methyl-1-[5-methyl-2-(2H-1,2,3-triazol-2-yl)benzoyl]piperidin-3-yl}isoquinolin-1-amine] was run?
Its Ki is 0.56 nM.

For `C[C@@H]1CC[C@@H](Oc2ccnc3c(F)cccc23)CN1C(=O)c1ccccc1-n1nccn1` [E-2], which Ki is on record?
Its Ki is 0.55 nM.

Which Ki does the source give for `C[C@@H]1CC[C@@H](Oc2nccc3ccccc23)CN1C(=O)c1ccccc1-n1nccn1` [F-2, 1-({(2R,5R)-6-methyl-1-[2-(2H-1,2,3-triazol-2-yl)benzoyl]piperidin-3-yl}oxy)-isoquinoline] here?
The Ki was 0.11 nM.
